In patent publication US20230250084A1, “PYRAZOLYL PYRIMIDINONE COMPOUNDS AND THE USES THEREOF” (Purdue Research Foundation, priority 2019, published 2023):

What was measured:
Format in all cases: cell-based
AC1 [1] = target: T1, AC1 (Homo sapiens, UniProt Q08828); assay: cAMP accumulation (HTRF) in HEK cells stably expressing AC1, stimulated with A23187; design: expressed in transfected cells; host or cells: HEK cells stably expressing AC1 (HEK-AC1), G418 selection
Procedure: The screen was carried out using HEK cells stably expressing AC1 (HEK-AC1) and cyclic AMP accumulation was stimulated using the Ca^2+ ionophore, A23187 to selectively activate AC1. […]
(§1) The primary technology we employed to measure cAMP accumulation was a homogenous time-resolved fluorescence (HTRF) assay, the same technology utilized in the primary screen. […]
(§2) Briefly, cryopreserved cells were thawed, resuspended in optiMEM (Life Technologies), and plated in white, flat bottom, low-volume, tissue culture-treated 384 well plates (PerkinElmer, Shelton, Conn.). Plates with cells were incubated in a 37° C. humidified incubator for 1 h. Inhibitors were added and plates were incubated at room temperature for 30 min followed by the addition of AC stimulants in the presence of 500 μM IBMX. Cells were incubated at room temperature for 1 h and cAMP accumulation was measured using Cisbio's cAMP kit (Cisbio Bioassays, Bedford, Mass.) according to the manufacturer's instructions.

AC8 [2] = target: T2, AC8 (Homo sapiens, UniProt P40145); assay: cAMP accumulation (HTRF) in HEK cells stably expressing AC8, stimulated with A23187; design: expressed in transfected cells; host or cells: HEK cells stably expressing AC8 (HEK-AC8), hygromycin B selection; conditions: Table 1; for Max AC8 Inh (%): maximum inhibition of AC8; for IC50: HEK-AC8 cells, A23187-stimulated cAMP accumulation
Procedure: as §1, §2
Target sequence in this assay (P40145 whole entry, species assumed): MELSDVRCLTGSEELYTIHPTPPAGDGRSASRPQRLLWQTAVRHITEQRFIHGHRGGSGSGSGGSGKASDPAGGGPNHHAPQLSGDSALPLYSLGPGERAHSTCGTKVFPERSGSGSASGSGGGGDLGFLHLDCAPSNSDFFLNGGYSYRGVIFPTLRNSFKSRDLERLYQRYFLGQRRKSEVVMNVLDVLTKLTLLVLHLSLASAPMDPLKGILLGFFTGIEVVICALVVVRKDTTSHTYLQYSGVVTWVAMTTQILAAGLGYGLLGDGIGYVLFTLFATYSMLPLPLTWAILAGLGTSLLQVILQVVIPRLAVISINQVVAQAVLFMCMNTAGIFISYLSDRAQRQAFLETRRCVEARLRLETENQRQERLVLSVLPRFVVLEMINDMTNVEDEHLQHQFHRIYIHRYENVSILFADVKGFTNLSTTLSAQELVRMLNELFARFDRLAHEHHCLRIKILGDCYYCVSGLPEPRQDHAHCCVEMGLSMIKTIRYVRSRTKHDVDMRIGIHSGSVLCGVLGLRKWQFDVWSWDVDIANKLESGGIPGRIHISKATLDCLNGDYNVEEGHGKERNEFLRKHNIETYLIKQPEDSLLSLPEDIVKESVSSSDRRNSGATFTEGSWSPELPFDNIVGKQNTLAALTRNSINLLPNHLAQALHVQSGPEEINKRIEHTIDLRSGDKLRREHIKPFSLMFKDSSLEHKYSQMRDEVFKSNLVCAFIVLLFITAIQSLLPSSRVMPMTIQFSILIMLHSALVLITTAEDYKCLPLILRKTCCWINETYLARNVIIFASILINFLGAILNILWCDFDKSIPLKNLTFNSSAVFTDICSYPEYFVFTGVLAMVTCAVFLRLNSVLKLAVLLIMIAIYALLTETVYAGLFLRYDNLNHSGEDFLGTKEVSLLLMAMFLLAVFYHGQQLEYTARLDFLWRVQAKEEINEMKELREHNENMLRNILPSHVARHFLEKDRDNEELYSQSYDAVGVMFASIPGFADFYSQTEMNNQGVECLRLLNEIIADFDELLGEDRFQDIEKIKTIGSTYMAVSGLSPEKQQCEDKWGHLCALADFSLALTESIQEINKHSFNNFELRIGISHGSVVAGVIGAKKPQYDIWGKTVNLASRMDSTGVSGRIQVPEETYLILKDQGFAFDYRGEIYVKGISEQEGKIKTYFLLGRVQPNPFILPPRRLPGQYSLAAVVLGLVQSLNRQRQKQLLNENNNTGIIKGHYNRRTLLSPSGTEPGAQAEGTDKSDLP

AC1 [3] = target: T1, AC1; assay: Adenylyl cyclase cAMP accumulation assay, HEK-ACA3/6 cells overexpressing human AC1; design: expressed in transfected cells; host or cells: HEK-ACA3/6 cells (so in the source) overexpressing human AC1; conditions: Table 2; 3 μM A23187 + 0.5 mM IBMX, HTRF cAMP; read-out: AC1 IC50 (μM) ± SEM
Procedure: Cryopreserved HEK-ACA3/6 cells overexpressing human AC1, AC2, AC5, or AC8 were transferred to a 15 mL Falcon tube and gently resuspended in prewarmed Opti-MEM.50 The cells were centrifuged for 5 min at 150 g, the supernatant was discarded, and the cell pellet was resuspended in 10 mL for a second centrifugation step. Then, the cells were counted, plated in a white opaque 384-well plate, and incubated for 1 h in a 37° C. incubator supplemented with 5% CO2. The hit compounds' working solutions were prepared in prewarmed Opti-MEM, and successive serial dilutions were prepared using a Precision 2000 automated pipetting system. Dose*-response curves were generated for each hit compound using a threefold serial dilution starting at 30 μM concentration (at least 6-points per curve). Compounds were added to the assay plates and incubated for 30 min at room temperature. AC activity was selectively stimulated on each AC isoform with 3 μM A23187 (AC1 and AC8), 100 nM PMA (AC2), or a low concentration (1 μM) of the AC activator, forskolin (AC5). All stimulants of AC activity were added in combination with IBMX at a final concentration of 0.5 mM. After 1 h incubation with the stimulant at room temperature, cAMP accumulation was detected using the fluorescence-based Cisbio HTRF cAMP detection kit. […] Percent inhibition at the highest concentration was used to determine max % inhibition (Max AC8% Inhibition). […]

AC8 [4] = target: T2, AC8; assay: Adenylyl cyclase cAMP accumulation assay, HEK-ACA3/6 cells overexpressing human AC8; design: expressed in transfected cells; host or cells: HEK-ACA3/6 cells (so in the source) overexpressing human AC8; conditions: Table 2
Procedure: Cryopreserved HEK-ACA3/6 cells overexpressing human AC1, AC2, AC5, or AC8 were transferred to a 15 mL Falcon tube and gently resuspended in prewarmed Opti-MEM.50 The cells were centrifuged for 5 min at 150 g, the supernatant was discarded, and the cell pellet was resuspended in 10 mL for a second centrifugation step. Then, the cells were counted, plated in a white opaque 384-well plate, and incubated for 1 h in a 37° C. incubator supplemented with 5% CO2. The hit compounds' working solutions were prepared in prewarmed Opti-MEM, and successive serial dilutions were prepared using a Precision 2000 automated pipetting system. Dose*-response curves were generated for each hit compound using a threefold serial dilution starting at 30 μM concentration (at least 6-points per curve). Compounds were added to the assay plates and incubated for 30 min at room temperature. AC activity was selectively stimulated on each AC isoform with 3 μM A23187 (AC1 and AC8), 100 nM PMA (AC2), or a low concentration (1 μM) of the AC activator, forskolin (AC5). All stimulants of AC activity were added in combination with IBMX at a final concentration of 0.5 mM. After 1 h incubation with the stimulant at room temperature, cAMP accumulation was detected using the fluorescence-based Cisbio HTRF cAMP detection kit. […] Percent inhibition at the highest concentration was used to determine max % inhibition (Max AC8% Inhibition).
The Max AC8 inhibition is a description of the maximum efficacy of molecules against AC8.
Target sequence in this assay (P40145 whole entry): as the sequence (P40145 whole entry, species assumed) above

[5] = Table 1, HEK-AC1 cells, A23187-stimulated cAMP accumulation, read-out: AC1 IC50

T1 sequence (Q08828 whole entry): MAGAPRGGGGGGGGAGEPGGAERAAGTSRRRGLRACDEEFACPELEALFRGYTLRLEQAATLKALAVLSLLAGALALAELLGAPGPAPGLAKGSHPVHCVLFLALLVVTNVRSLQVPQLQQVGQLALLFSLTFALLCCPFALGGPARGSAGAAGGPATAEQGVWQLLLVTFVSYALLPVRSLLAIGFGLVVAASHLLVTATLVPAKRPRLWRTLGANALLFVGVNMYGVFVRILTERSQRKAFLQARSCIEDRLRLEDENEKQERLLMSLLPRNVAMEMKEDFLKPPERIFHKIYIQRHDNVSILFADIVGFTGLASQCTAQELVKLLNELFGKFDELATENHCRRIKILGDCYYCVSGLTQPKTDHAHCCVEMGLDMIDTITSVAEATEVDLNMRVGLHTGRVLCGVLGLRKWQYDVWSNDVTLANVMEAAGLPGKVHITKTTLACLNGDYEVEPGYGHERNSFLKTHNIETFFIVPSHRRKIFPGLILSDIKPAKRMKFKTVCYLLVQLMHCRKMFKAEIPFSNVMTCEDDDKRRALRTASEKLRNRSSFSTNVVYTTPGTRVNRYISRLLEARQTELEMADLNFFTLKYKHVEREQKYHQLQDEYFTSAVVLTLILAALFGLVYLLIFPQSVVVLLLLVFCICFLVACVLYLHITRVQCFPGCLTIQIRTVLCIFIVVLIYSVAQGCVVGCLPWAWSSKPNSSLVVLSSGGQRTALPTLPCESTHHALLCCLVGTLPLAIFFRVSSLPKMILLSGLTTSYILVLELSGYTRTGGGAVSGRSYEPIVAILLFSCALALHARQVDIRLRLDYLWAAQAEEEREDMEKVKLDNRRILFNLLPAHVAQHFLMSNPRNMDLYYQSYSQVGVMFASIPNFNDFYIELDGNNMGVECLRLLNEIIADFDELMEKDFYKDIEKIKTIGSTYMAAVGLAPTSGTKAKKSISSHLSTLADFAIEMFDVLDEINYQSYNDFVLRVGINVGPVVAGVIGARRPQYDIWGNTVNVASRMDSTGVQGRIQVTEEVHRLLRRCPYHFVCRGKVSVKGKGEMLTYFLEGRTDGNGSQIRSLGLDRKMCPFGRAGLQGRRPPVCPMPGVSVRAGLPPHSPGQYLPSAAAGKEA

Row | IC50 (AC1 [1]; [5]) [µM] | Max AC8 Inh (%) (AC8 [2]) | IC50 (AC8 [2]) [µM] | IC50 (AC1 [3]) [µM] | IC50 (AC8 [4]; 3 μM A23187 + 0.5 mM IBMX, HTRF cAMP, read-out: AC8 IC50 (μM) ± SEM) [µM] | inhibition at up to 30 µM (AC8 [4]; percent inhibition at the highest concentration (dilution starting at 30 μM), read-out: Max AC8 % inhibition) [%] | Structure (SMILES) | IC50 (AC1 [1]) [µM]
1 | 0.4 | 12 |  |  |  |  | CCc1cccc(C(=O)Nc2cc(C)nn2-c2nc(CC)cc(=O)[nH]2)c1 [AC10081, 3-ethyl-N-(1-(6-ethyl-4-oxo-1,4-dihydropyrimidin-2-yl)-3-methyl-1H-pyrazol-5-yl)benzamide] | 
2 | 0.5 | 19 | 37 |  |  |  | CCc1ccc(C(=O)Nc2cc(C)nn2-c2nc(CC)cc(=O)[nH]2)cc1 [AC10082, 4-ethyl-N-(1-(6-ethyl-4-oxo-1,4-dihydropyrimidin-2-yl)-3-methyl-1H-pyrazol-5-yl)benzamide] | 
3 | 0.4 | 28 | 24 |  |  |  | CCc1cc(=O)[nH]c(-n2nc(C)cc2NC(=O)c2cccc(C(C)C)c2)n1 [AC10087, N-(1-(6-ethyl-4-oxo-1,4-dihydropyrimidin-2-yl)-3-methyl-1H-pyrazol-5-yl)-3-isopropylbenzamide] | 
4 | 0.4 | 52 | 9.7 |  |  |  | CCc1cc(=O)[nH]c(-n2nc(C)cc2NC(=O)c2cccc(SC)c2)n1 [AC10088, N-(1-(4-ethyl-6-oxo-1,6-dihydropyrimidin-2-yl)-3-methyl-1H-pyrazol-5-yl)-3-(methylthio)benzamide] | 
5 | 0.7 | 41 | 18 |  |  |  | CCc1cc(=O)[nH]c(-n2nc(C)cc2NC(=O)c2cccc(C(F)(F)F)c2)n1 [AC10089, N-(1-(4-ethyl-6-oxo-1,6-dihydropyrimidin-2-yl)-3-methyl-1H-pyrazol-5-yl)-3-(trifluoromethyl)benzamide] | 
6 | 0.4 | 48 | 6.9 |  |  |  | CCc1cc(=O)[nH]c(-n2nc(C)cc2NC(=O)c2cccc(Cl)c2)n1 [AC10090, 3-chloro-N-(1-(6-ethyl-4-oxo-1,4-dihydropyrimidin-2-yl)-3-methyl-1H-pyrazol-5-yl)benzamide] | 
7 | 1.2 | 55 | 12 |  |  |  | CCc1cc(=O)[nH]c(-n2nc(C)cc2NC(=O)c2cccc(F)c2)n1 [AC10091, N-(1-(6-ethyl-4-oxo-1,4-dihydropyrimidin-2-yl)-3-methyl-1H-pyrazol-5-yl)-3-fluorobenzamide] | 
8 | 0.9 | 52 | 14 |  |  |  | CCc1cc(=O)[nH]c(-n2nc(C)cc2NC(=O)c2ccc(F)cc2)n1 [AC10092, N-(1-(6-ethyl-4-oxo-1,4-dihydropyrimidin-2-yl)-3-methyl-1H-pyrazol-5-yl)-4-fluorobenzamide] | 
9 |  | 46 | 15 |  |  |  | CCc1cc(=O)[nH]c(-n2nc(C)cc2NC(=O)c2ccccn2)n1 [AC10093, N-(1-(6-ethyl-4-oxo-1,4-dihydropyrimidin-2-yl)-3-methyl-1H-pyrazol-5-yl)picolinamide] | 
10 |  |  |  | 7.49 ± 2.9 | 58.9 ± 36.1 | 48 | Cc1cc(NCc2ccc(Cl)cc2)n(-c2nc3c(c(=O)[nH]2)CCC3)n1 [AC10110A] | 

More lines, now with the values behind:

Row | Structure (SMILES) | IC50 (AC1 [1]; [5]) [µM] | Max AC8 Inh (%) (AC8 [2]) | IC50 (AC8 [2]) [µM] | IC50 (AC1 [3]) [µM] | IC50 (AC8 [4]; 3 μM A23187 + 0.5 mM IBMX, HTRF cAMP, read-out: AC8 IC50 (μM) ± SEM) [µM] | inhibition at up to 30 µM (AC8 [4]; percent inhibition at the highest concentration (dilution starting at 30 μM), read-out: Max AC8 % inhibition) [%] | IC50 (AC1 [1]) [µM]
11 | CCc1cc(=O)[nH]c(-n2nc(C)cc2NC(=O)c2ccccc2F)n1 [AC10048, N-(1-(6-ethyl-4-oxo-1,4-dihydropyrimidin-2-yl)-3-methyl-1H-pyrazol-5-yl)-2-fluorobenzamide] | 1.5 | 46 |  |  |  |  | 
12 | CCc1cc(=O)[nH]c(-n2nc(C)cc2NC(=O)c2ccc(Cl)cc2)n1 [AC10058, 4-chloro-N-(1-(6-ethyl-4-oxo-1,4-dihydropyrimidin-2-yl)-3-methyl-1H-pyrazol-5-yl)benzamide] | 0.3 | 32 | 9.5 |  |  |  | 
13 | CCc1cc(=O)[nH]c(-n2nc(C)cc2NC(=O)c2ccccc2)n1 [AC10068, N-(1-(6-ethyl-4-oxo-1,4-dihydropyrimidin-2-yl)-3-methyl-1H-pyrazol-5-yl)benzamide] | 2.7 | 0 |  |  |  |  | 
14 | CCc1cc(=O)[nH]c(-n2nc(C)cc2NC(=O)c2ccco2)n1 [AC10069, N-(1-(6-ethyl-4-oxo-1,4-dihydropyrimidin-2-yl)-3-methyl-1H-pyrazol-5-yl)furan-2-carboxamide] | 6.1 | 20 |  |  |  |  | 
15 | CCc1cc(=O)[nH]c(-n2nc(C)cc2NC(=O)c2ccc(OCOC)cc2)n1 [AC10071, N-(1-(6-ethyl-4-oxo-1,4-dihydropyrimidin-2-yl)-3-methyl-1H-pyrazol-5-yl)-4-(methoxymethoxy)benzamide] | 3.2 |  | 23 |  |  |  | 
16 | CCc1cc(=O)[nH]c(-n2nc(C)cc2NC(=O)c2cccc(OC)c2)n1 [AC10073, N-(1-(6-ethyl-4-oxo-1,4-dihydropyrimidin-2-yl)-3-methyl-1H-pyrazol-5-yl)-3-methoxybenzamide] |  | 5 |  |  |  |  | 1
17 | CCc1cc(=O)[nH]c(-n2nc(C)cc2NC(=O)c2ccccc2CC)n1 [AC10074, 2-ethyl-N-(1-(6-ethyl-4-oxo-1,4-dihydropyrimidin-2-yl)-3-methyl-1H-pyrazol-5-yl)benzamide] | 2.8 | 21 | 50 |  |  |  | 
18 | CCc1cc(=O)[nH]c(-n2nc(C)cc2NC(=O)Cc2cccc(C)c2)n1 [AC10075, N-(1-(6-ethyl-4-oxo-1,4-dihydropyrimidin-2-yl)-3-methyl-1H-pyrazol-5-yl)-2-(m-tolyl)acetamide] | 10 | 59 | 50 |  |  |  | 
19 | CCc1cc(=O)[nH]c(-n2nc(C)cc2NC(=O)c2ccc(OC)cc2)n1 [AC10076, N-(1-(6-ethyl-4-oxo-1,4-dihydropyrimidin-2-yl)-3-methyl-1H-pyrazol-5-yl)-4-methoxybenzamide] |  | 0 | 33 |  |  |  | 
20 | CCc1cc(=O)[nH]c(-n2nc(C)cc2NC(=O)c2ccccc2C)n1 [AC10077, N-(1-(6-ethyl-4-oxo-1,4-dihydropyrimidin-2-yl)-3-methyl-1H-pyrazol-5-yl)-2-methylbenzamide] | 2.4 | 11 |  |  |  |  | 
21 | CCc1cc(=O)[nH]c(-n2nc(C)cc2NC(=O)c2cccc(C)c2)n1 [AC10079, N-(1-(6-ethyl-4-oxo-1,4-dihydropyrimidin-2-yl)-3-methyl-1H-pyrazol-5-yl)-3-methylbenzamide] |  | 27 | 27 |  |  |  | 0.4
22 | CCc1cc(=O)[nH]c(-n2nc(C)cc2NC(=O)c2ccc(C)cc2)n1 [AC10080, N-(1-(6-ethyl-4-oxo-1,4-dihydropyrimidin-2-yl)-3-methyl-1H-pyrazol-5-yl)-4-methylbenzamide] | 0.7 | 27 | 48 |  |  |  | 
